We go through 15 compounds from PubChem BioAssay (NCI).

Some test systems named below: A498 renal; HCC-2998 colon; OVCAR-5 ovarian; SK-MEL-5 melanoma; U251 CNS; DLD-1 colon; DMS 114 small cell lung; DMS 273 small cell lung; KM20L2 colon; LXFL 529 NSCLC; M19-MEL melanoma; SNB-78 CNS; HOP-18 NSCLC; XF 498 CNS; RXF-631 renal.
Assay in all cases: inhibition of tumour cell growth, NCI panel, 48 h

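Grown in 96-well plates, cells were treated for 48 hours with each compound at five concentrations. Insufficient inhibition: endpoint recorded as highest concentration tested. TGI denotes the concentration required for complete inhibition of growth.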 *1 amine or outer side, *2 acyl side, *3 side chain or, on linkers, in order; H or OH if unused. Where a SMILES comes first, the peptide text is derived from it. [ ]: non-standard residue; d: D form. X32 = C[C@H](N[*:1])C(=O)C(C)(C)C(=O)[*:2]; Hmpa(2S,3S) = CC[C@H](C)[C@H](O)C(=O)O; NMeY = CN[C@@H](Cc1ccc(O)cc1)C(=O)O; NMeL = CN[C@@H](CC(C)C)C(=O)O; NMeV = CN[C@H](C(=O)O)C(C)C; βAla = NCCC(=O)O

Take `CC(=O)O[C@H]1[C@H](OC(=O)CC(C)(O)CC(=O)O)C[C@]2(C)C3=C(CCC2C1(C)C)[C@]1(C)CC[C@H]([C@H]2CC[C@H](C(C)(C)O)OC2O)[C@@]1(C)[C@@H](O)C3` (stereo partly drawn): the TGI with A498 renal stood at 26.4 µM; in the experiment with HCC-2998 colon, 31.7 µM; in the experiment on OVCAR-5 ovarian, 31.7 µM; with SK-MEL-5 melanoma it was 30.9 µM; in the experiment with U251 CNS, 35.5 µM.

Consider `N#Cc1c(N)nc(Sc2ccccc2N)c(C#N)c1-c1ccc(Cl)cc1`, for which the TGI in the experiment with A498 renal was 16.9 µM; with HCC-2998 colon, 36 µM; in the experiment on OVCAR-5 ovarian, above 87.3 µM; in the experiment on SK-MEL-5 melanoma, above 55 µM; with U251 CNS, 24.5 µM.

Take `Cn1c2ccccc2c(=O)c2cccc(C(=O)NC(CCC(N)=O)C(=O)O)c21` (stereo not drawn): the TGI with A498 renal, in the experiment on HCC-2998 colon, in the experiment on OVCAR-5 ovarian, in the experiment with SK-MEL-5 melanoma and in the experiment on U251 CNS was above 100 µM throughout.

As to `O=[N+]([O-])c1ccc(N/N=C/c2ccc(OCCCCCCCCCCCO)cc2)c([N+](=O)[O-])c1`, the TGI is above 100 µM with A498 renal; 76.6 µM in the experiment with HCC-2998 colon; above 56.1 µM in the experiment on OVCAR-5 ovarian; 4.66 µM in the experiment with SK-MEL-5 melanoma; 10.7 µM in the experiment on U251 CNS.

`CO/N=C(\C)CCC#Cc1ccccc1C(=O)OC`: the TGI with A498 renal, in the experiment on HCC-2998 colon, with OVCAR-5 ovarian, in the experiment on SK-MEL-5 melanoma and in the experiment with U251 CNS was above 10 µM each time.

On to `CC1=C(C(=O)Nc2ccccc2)C2(CCCCC2)C(C#N)=C(SCC(=O)Nc2ccc(Br)cc2)N1`, for which the TGI amounted to 19.6 µM in the experiment with A498 renal; 10.4 µM in the experiment on HCC-2998 colon; 14.6 µM in the experiment on OVCAR-5 ovarian; 8.39 µM with SK-MEL-5 melanoma; 15.3 µM in the experiment on U251 CNS.

Regarding `O=C1c2ccc(O)c(O)c2C(=O)c2c(O)ccc(O)c21`, the TGI is 53.8 µM in the experiment on A498 renal; above 100 µM with DLD-1 colon; 32.6 µM with DMS 114 small cell lung; 61.7 µM in the experiment on DMS 273 small cell lung; 47.9 µM with HCC-2998 colon; 70.8 µM with KM20L2 colon. The TGI is above 100 µM in the experiment on LXFL 529 NSCLC; above 100 µM in the experiment on M19-MEL melanoma; 76.5 µM in the experiment on OVCAR-5 ovarian; above 100 µM with SNB-78 CNS; above 100 µM in the experiment with U251 CNS.

Consider `Nc1nc2c3nc(Nc4ccccc4)sc3nc(=O)n2c2sc(Nc3ccccc3)nc12`, for which the TGI in the experiment on A498 renal, in the experiment on DLD-1 colon, with DMS 273 small cell lung, with HCC-2998 colon, in the experiment with HOP-18 NSCLC and with KM20L2 colon was above 100 µM in each case. The TGI in the experiment with LXFL 529 NSCLC, with M19-MEL melanoma, with SK-MEL-5 melanoma, in the experiment with SNB-78 CNS, with U251 CNS and in the experiment on XF 498 CNS was above 100 µM throughout.

Consider `COc1ccc2c(c1)CCc1c-2n(CCN2CCCCC2)c2ccc(OC)cc12`, for which the TGI in the experiment with A498 renal, in the experiment on HCC-2998 colon, in the experiment with OVCAR-5 ovarian, in the experiment on SK-MEL-5 melanoma and in the experiment with U251 CNS was above 100 µM throughout.

Take `COc1cc(/C=C/C(=O)C2(C(=O)/C=C/c3cc(OC)c(OC)c(OC)c3)CCCCC2)cc(OC)c1OC`: the TGI in the experiment on A498 renal, in the experiment with HCC-2998 colon, in the experiment with OVCAR-5 ovarian, with SK-MEL-5 melanoma and in the experiment with U251 CNS was above 100 µM in each case.

Regarding `CCCCCCCCCCCCCCCCCCN(C)CC(COP(=O)([O-])OCC[N+](C)(C)C)OC` (stereo not drawn), the TGI in the experiment with A498 renal turned out to be 39.3 µM; with DLD-1 colon it was 17.3 µM; in the experiment on DMS 114 small cell lung it was 20.5 µM; with DMS 273 small cell lung it was 5.4 µM; with HCC-2998 colon it was 24.2 µM; in the experiment with HOP-18 NSCLC, 32.5 µM. Further, the TGI with KM20L2 colon amounted to 4.16 µM; in the experiment on LXFL 529 NSCLC, 21.6 µM; in the experiment on M19-MEL melanoma, 13.1 µM; in the experiment with OVCAR-5 ovarian, 11.1 µM; in the experiment with RXF-631 renal, 43.7 µM; in the experiment with SK-MEL-5 melanoma, 43.8 µM. The TGI came out at 21.3 µM with SNB-78 CNS, 10.1 µM in the experiment on U251 CNS and 29.9 µM in the experiment with XF 498 CNS.

`CC(=O)Nc1ccc(C2SCc3nc4ccccc4n32)cc1` (stereo not drawn): the TGI in the experiment with A498 renal was 28.6 µM; with HCC-2998 colon, above 100 µM; with OVCAR-5 ovarian, above 100 µM; in the experiment on SK-MEL-5 melanoma it was above 100 µM; in the experiment with U251 CNS, above 100 µM.

With `O=C(Nc1nc(C23CC4CC(CC(C4)C2)C3)cs1)c1cc2ccccc2oc1=O`, the TGI in the experiment on A498 renal, with HCC-2998 colon, with OVCAR-5 ovarian, in the experiment with SK-MEL-5 melanoma and in the experiment on U251 CNS was above 100 µM each time.

Consider `Cc1cc(C)c(-n2c(-c3ccc(Br)cc3)cs/c2=N\N=C2C=C(C(C)(C)C)C(=O)C(C(C)(C)C)=C2)c(C)c1`, for which the TGI in the experiment with A498 renal was 97.7 µM; with DLD-1 colon, above 100 µM; with DMS 114 small cell lung it was above 100 µM; with DMS 273 small cell lung it was above 100 µM; in the experiment with HCC-2998 colon it was above 100 µM; in the experiment with HOP-18 NSCLC, above 100 µM. For the same compound, the TGI in the experiment with KM20L2 colon, in the experiment on LXFL 529 NSCLC, in the experiment with M19-MEL melanoma, in the experiment on OVCAR-5 ovarian, in the experiment with RXF-631 renal and in the experiment on SK-MEL-5 melanoma was above 100 µM in each case. Moreover, the TGI in the experiment on SNB-78 CNS, with U251 CNS and in the experiment on XF 498 CNS was above 100 µM throughout.

As for `CC[C@H](C)[C@@H]1OC(=O)CCNC(=O)[C@@H](C)NC(=O)C(C)(C)C(=O)[C@H](C)NC(=O)[C@H](Cc2ccc(OC)cc2)N(C)C(=O)[C@H](C(C)C)N(C)C(=O)CNC(=O)[C@H](CC(C)C)N(C)C(=O)CNC1=O` (cyclo(G[NMeL]G[NMeV][NMeY](Me)[X32][dA][βAla][Hmpa(2S,3S)])), the TGI in the experiment on A498 renal is 5.91 µM; in the experiment with HCC-2998 colon, above 25.1 µM; in the experiment with OVCAR-5 ovarian, above 31.2 µM; with SK-MEL-5 melanoma, 0.228 µM; in the experiment with U251 CNS, 2.62 µM.
